This note sets out measurements from US20240360146A1, “BRUTON'S TYROSINE KINASE AND MUTANT DEGRADER, COMPOSITION AND APPLICATION THEREOF” (HANGZHOU HEALZEN THERAPEUTICS CO., LTD., priority 2021, published 2024).

SMILES strings stand for the structures.

This test deals with T1, BTK (Homo sapiens, UniProt Q06187).
T1 construct: endogenous in cells; host or cells: Mino cells
As to the kind of experiment: BTK degradation activity test in Mino cells. It counts as cell-based. Conditions: 16 h incubation, Western blot or Elisa. In outline: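 Mino cells treated with a concentration series of compound for 16 h, then lysed; total protein by BCA. BTK quantified by Western blot or ELISA, degradation rate calculated against blank control, and DC50 fitted from the degradation curve.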
Background: A western blot detects proteins with antibodies after separation by electrophoresis.

Usually DC50 stands for the concentration at which degradation of the target reaches its halfway point. A high value points to degradation only at high concentration.

T1 sequence (Q06187 whole entry): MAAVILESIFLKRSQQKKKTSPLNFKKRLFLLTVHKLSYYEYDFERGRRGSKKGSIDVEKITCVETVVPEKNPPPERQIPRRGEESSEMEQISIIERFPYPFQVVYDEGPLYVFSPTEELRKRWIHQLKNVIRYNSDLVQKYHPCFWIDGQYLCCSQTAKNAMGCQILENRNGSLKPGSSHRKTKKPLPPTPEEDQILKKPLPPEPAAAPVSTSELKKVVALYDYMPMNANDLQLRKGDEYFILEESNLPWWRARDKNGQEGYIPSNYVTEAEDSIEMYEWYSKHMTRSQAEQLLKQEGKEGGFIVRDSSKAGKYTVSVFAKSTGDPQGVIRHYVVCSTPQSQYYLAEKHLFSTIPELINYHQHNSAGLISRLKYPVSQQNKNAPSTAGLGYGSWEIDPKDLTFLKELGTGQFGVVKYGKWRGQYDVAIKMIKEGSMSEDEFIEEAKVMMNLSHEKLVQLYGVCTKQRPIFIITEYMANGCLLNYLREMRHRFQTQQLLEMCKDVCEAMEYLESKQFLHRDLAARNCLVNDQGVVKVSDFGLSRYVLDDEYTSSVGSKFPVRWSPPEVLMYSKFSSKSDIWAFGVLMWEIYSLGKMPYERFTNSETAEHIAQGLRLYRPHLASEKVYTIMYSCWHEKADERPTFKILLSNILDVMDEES

In the case of `NC(=O)c1nnc(N2CCCC(N3CCN(c4cccnc4)C3=O)C2)nc1Nc1ccc(C2CCN(CC3CCN(c4ccc5c(c4)C(=O)N(C4CCC(=O)NC4=O)C5=O)CC3)CC2)cc1` (centres unmarked) [Compound 067, 5-((4-(1-((1-(2-(2,6-dioxopiperidin-3-yl)-1,3-dioxoisoindol-5-yl)piperidin-4-yl)methyl)piperidin-4-yl)phenyl)amino)-3-(3-(2-oxo-3-(pyridin-3-yl)imidazolin-1-yl)piperidin-1-yl)-1,2,4-triazin-6-carboxamide], the DC50 was < 1 nM.
Next, `CN1C(=O)N(C2CCCN(c3nnc(C(N)=O)c(Nc4ccc(C5CCN(CC6CCN(c7ccc8c(c7)C(=O)N(C7CCC(=O)NC7=O)C8=O)CC6)CC5)cc4)n3)C2)CC12CC2` (centres unmarked) [Compound 068, 5-((4-(1-((1-(2-(2,6-dioxopiperidin-3-yl)-1,3-dioxoisoindol-5-yl)piperidin-4-yl)methyl)piperidin-4-yl)phenyl)amino)-3-(3-(4-methyl-5-oxo-4,6-diazaspirocyclo[2.4]heptan-6-yl)piperidin-1-yl)-1,2,4-triazin-6-carboxamide]: < 1 nM; `CN1C(=O)N(C2CCCN(c3nnc(C(N)=O)c(Nc4ccc(C5CCN(CC6CCN(c7ccc8c(c7)C(=O)N(C7CCC(=O)NC7=O)C8=O)CC6)CC5)cc4)n3)C2)CC12CCC2` (centres unmarked) [Compound 069, 5-((4-(1-((1-(2-(2,6-dioxopiperidin-3-yl)-1,3-dioxoisoindol-5-yl)piperidin-4-yl)methyl)piperidin-4-yl)phenyl)amino)-3-(3-(5-methyl-6-oxo-5,7-diazaspirocyclo[3.4]octan-7-yl)piperidin-1-yl)-1,2,4-triazin-6-carboxamide]: < 1 nM.
With `NC(=O)c1nnc(N2CCCC(N3CC4CCCN4C3=O)C2)nc1Nc1ccc(C2CCN(CC3CCN(c4ccc5c(c4)C(=O)N(C4CCC(=O)NC4=O)C5=O)CC3)CC2)cc1` (centres unmarked) [Compound 070, 5-((4-(1-((1-(2-(2,6-dioxopiperidin-3-yl)-1,3-dioxoisoindol-5-yl)piperidin-4-yl)methyl)piperidin-4-yl)phenyl)amino)-3-(3-(3-oxytrihydro-1H-pyrrolo[1,2-c]imidazol-2(3H)-yl)piperidin-1-yl)-1,2,4-triazin-6-carboxamide], the DC50 was < 1 nM.
To `CN1CCN(C2CC3CC2N(c2nnc(C(N)=O)c(Nc4ccc(C5CCN(CC6CCN(c7ccc8c(c7)C(=O)N(C7CCC(=O)NC7=O)C8=O)CC6)CC5)cc4)n2)C3)C1=O` (centres unmarked) [Compound 071, 5-((4-(1-((1-(2-(2,6-dioxopiperidin-3-yl)-1,3-dioxoisoindol-5-yl)piperidin-4-yl)methyl)piperidin-4-yl)phenyl)amino)-3-(6-(3-methyl-2-oxoimidazolin-1-yl)-2-azabicyclo[2.2.1]heptan-2-yl)-1,2,4-triazin-6-carboxamide] belongs > 1 nM; to `NC(=O)c1nnc(N2CC3CC(N4CCN(C5CCCC5)C4=O)C2C3)nc1Nc1ccc(C2CCN(CC3CCN(c4ccc5c(c4)C(=O)N(C4CCC(=O)NC4=O)C5=O)CC3)CC2)cc1` (centres unmarked) [Compound 072, 3-(6-(3-cyclopentyl-2-oxoimidazolin-1-yl)-2-azabicyclo[2.2.1]heptan-2-yl)-5-((4-(1-((1-(2-(2,6-dioxopiperidin-3-yl)-1,3-dioxoisoindol-5-yl)piperidin-4-yl)methyl)piperidin-4-yl)phenyl)amino)-1,2,4-triazin-6-carboxamide], < 1 nM.
Regarding `NC(=O)c1nnc(N2CC3CC(N4CC5CCCN5C4=O)C2C3)nc1Nc1ccc(C2CCN(CC3CCN(c4ccc5c(c4)C(=O)N(C4CCC(=O)NC4=O)C5=O)CC3)CC2)cc1` (centres unmarked) [Compound 074, 5-((4-(1-((1-(2-(2,6-dioxopiperidin-3-yl)-1,3-dioxoisoindol-5-yl)piperidin-4-yl)methyl)piperidin-4-yl)phenyl)amino)-3-(6-(3-oxotetrahydro-1H-pyrrolo[1,2-c]imidazol-2(3H)-yl)-2-azabicyclo[2.2.1]heptan-2-yl)-1,2,4-triazin-6-carboxamide], the DC50 was < 1 nM.
To `CN1CCN(C2CC3CCC2N(c2nnc(C(N)=O)c(Nc4ccc(C5CCN(CC6CCN(c7ccc8c(c7)C(=O)N(C7CCC(=O)NC7=O)C8=O)CC6)CC5)cc4)n2)C3)C1=O` (centres unmarked) [Compound 075, 5-((4-(1-((1-(2-(2,6-dioxopiperidin-3-yl)-1,3-dioxoisoindol-5-yl)piperidin-4-yl)methyl)piperidin-4-yl)phenyl)amino)-3-(6-(3-methyl-2-oxoimidazolin-1-yl)-2-azabicyclo[2.2.2]octan-2-yl)-1,2,4-triazin-6-carboxamide] belongs > 1 nM; to `CN1CCN(C2CCCN(c3nnc(C(N)=O)c(Nc4ccc(C5CCN(CC6CCN(c7ccc8c(c7)C(=O)N(C7CCC(=O)NC7=O)C8=O)C6)CC5)cc4)n3)C2)C1=O` (centres unmarked) [Compound 076, 5-((4-(1-((1-(2-(2,6-dioxopiperidin-3-yl)-1,3-dioxoisooctyl-5-yl)pyrrolidin-3-yl)methyl)piperidin-4-yl)phenyl)amino)-3-(3-(3-methyl-2-oxoimidazolin-1-yl)piperidin-1-yl)-1,2,4-triazin-6-carboxamide], < 1 nM; to `CN1CCN(C2CCCN(c3nnc(C(N)=O)c(Nc4ccc(C5CCN(C6CN(c7ccc8c(c7)C(=O)N(C7CCC(=O)NC7=O)C8=O)C6)CC5)cc4)n3)C2)C1=O` (centres unmarked) [Compound 077, 5-((4-(1-(1-(2-(2,6-dioxopiperidin-3-yl)-1,3-dioxoisoindol-5-yl)azetidin-3-yl)piperidin-4-yl)phenyl)amino)-3-(3-(3-methyl-2-oxoimidazolin-1-yl)piperidin-1-yl)-1,2,4-triazin-6-carboxamide], < 1 nM.
To `CN1CCN(C2CCCN(c3nnc(C(N)=O)c(Nc4ccc(C5(C)CCN(C6CCN(c7ccc8c(c7)C(=O)N(C7CCC(=O)NC7=O)C8=O)CC6)CC5)cc4)n3)C2)C1=O` (centres unmarked) [Compound 078, 5-((4-(1′-(2-(2,6-dioxopiperidin-3-yl)-1,3-dioxoisoindol-5-yl)-4-methyl-[1,4′-bipiperidin]-4-yl)phenyl)amino)-3-(3-(3-methyl-2-oxoimidazolidin-1-yl)piperidin-1-yl)-1,2,4-triazin-6-carboxamide] belongs < 1 nM; to `CN1CCN(C2CCCN(c3nnc(C(N)=O)c(Nc4ccc(C5(C)CCN(C6CN(c7ccc8c(c7)C(=O)N(C7CCC(=O)NC7=O)C8=O)C6)CC5)cc4)n3)C2)C1=O` (centres unmarked) [Compound 079, 5-((4-(1-(1-(2-(2,6-dioxopiperidin-3-yl)-1,3-dioxoisoindol-5-yl)azetidin-3-yl)-4-methylpiperidin-4-yl)phenyl)amino)-3-(3-(3-methyl-2-oxoimidazolin-1-yl)piperidin-1-yl)-1,2,4-triazin-6-carboxamide], < 1 nM; to `CN1CCN(C2CCCN(c3nnc(C(N)=O)c(Nc4ccc5c(c4)CCN(C4CN(c6ccc7c(c6)C(=O)N(C6CCC(=O)NC6=O)C7=O)C4)C5)n3)C2)C1=O` (centres unmarked) [Compound 080], < 1 nM.
`CN1CCN(C2CCCN(c3nnc(C(N)=O)c(Nc4ccc5c(c4)CCN(CC4CCN(c6ccc7c(c6)C(=O)N(C6CCC(=O)NC6=O)C7=O)CC4)C5)n3)C2)C1=O` (centres unmarked) [Compound 081, 5-((2-((1-(2-(2,6-dioxopiperidin-3-yl)-1,3-dioxoisoindol-5-yl)piperidin-4-yl)methyl)-1,2,3,4-tetrahydroisoquinolin-6-yl)amino)-3-(3-(3-methyl-2-oxoimidazolin-1-yl)piperidin-1-yl)-1,2,4-triazin-6-carboxamide]: the DC50 is < 1 nM.
To `CN1CCN(C2CCCN(c3nnc(C(N)=O)c(Nc4ccc(N5CCN(CC6CCN(c7ccc8c(c7)C(=O)N(C7CCC(=O)NC7=O)C8=O)CC6)CC5)cc4)n3)C2)C1=O` (centres unmarked) [Compound 082, 5-((4-(4-((1-(2-(2,6-dioxopiperidin-3-yl)-1,3-dioxoisoindol-5-yl)piperidin-4-yl)methyl)piperazin-1-yl)phenyl)amino)-3-(3-(3-methyl-2-oxoimidazolin-1-yl)piperidin-1-yl)-1,2,4-triazin-6-carboxamide] belongs < 1 nM; to `CN1CCN(C2CCCN(c3nnc(C(N)=O)c(Nc4ccc(C5CCN(C6CCN(c7ccc8c(c7)C(=O)N(C7CCC(=O)NC7=O)C8=O)CC6)CC5)cc4)n3)C2)C1=O` (centres unmarked) [Compound 083, 5-((4-(1′-(2-(2,6-dioxopiperidin-3-yl)-1,3-dioxoisoindol-5-yl)-[1,4′-bipiperidin]-4-yl)phenyl)amino)-3-(3-(3-methyl-2-oxoimidazolin-1-yl)piperidin-1-yl)-1,2,4-triazin-6-carboxamide], < 1 nM.
Next, `CN1CCN(C2CCCN(c3nnc(C(N)=O)c(Nc4ccc(N5CCC(N6CCN(CC#Cc7ccc8c(c7)CN(C7CCC(=O)NC7=O)C8=O)CC6)CC5)cc4)n3)C2)C1=O` (centres unmarked) [Compound 084]: < 1 nM.
On to `CN1CCN(C2CCCN(c3nnc(C(N)=O)c(Nc4ccc(C5CCN(CC6CCN(c7cc8c(cc7F)C(=O)N(C7CCC(=O)NC7=O)C8=O)CC6)CC5)cc4)n3)C2)C1=O` (centres unmarked) [Compound 085, 5-((4-(1-((1-(2-(2,6-dioxopiperidin-3-yl)-6-fluoro-1,3-dioxoisoindol-5-yl)piperidin-4-yl)methyl)piperidin-4-yl)phenyl)amino)-3-(3-(3-methyl-2-oxoimidazolin-1-yl)piperidin-1-yl)-1,2,4-triazin-6-carboxamide], for which the DC50 is < 1 nM.
To `CN1CCN(C2CCCN(c3nnc(C(N)=O)c(Nc4ccc(C5CCN(CC6CCN(c7ccc8c(c7)C(=O)N(C7CCC(=O)NC7=O)C8)CC6)CC5)cc4)n3)C2)C1=O` (centres unmarked) [Compound 086, 5-((4-(1-((1-(2-(2,6-dioxopiperidin-3-yl)-3-oxoisoindol-5-yl)piperidin-4-yl)methyl)piperidin-4-yl)phenyl)amino)-3-(3-(3-methyl-2-oxoimidazolin-1-yl)piperidin-1-yl)-1,2,4-triazin-6-carboxamide] belongs < 1 nM; to `CN1CCN(C2CCCN(c3nnc(C(N)=O)c(Nc4ccc(C5CCN(CC6CCN(c7ccc8c(c7)CN(C7CCC(=O)NC7=O)C8=O)CC6)CC5)cc4)n3)C2)C1=O` (centres unmarked) [Compound 087, 5-((4-(1-((1-(2-(2,6-dioxopiperidin-3-yl)-1-oxoisooctyl-5-yl)piperidin-4-yl)methyl)piperidin-4-yl)phenyl)amino)-3-(3-(3-methyl-2-oxyimidazolin-1-yl)piperidin-1-yl)-1,2,4-triazin-6-carboxamide], < 1 nM.
